Assay results taken from paper PMC5920109, “Identification, Expression, and Regulation of an Omega Class Glutathione S-transferase in Rhopalosiphum padi (L.) (Hemiptera: Aphididae) Under Insecticide Stress” (Frontiers in Physiology, 2018).

Target: T1, RpGSTO1 (Rhopalosiphum padi, UniProt A0A2U9PFG6)
T1 construct: pET-28a His-tag (tag removal not mentioned), E. coli BL21(DE3), BamHI/HindIII
T1 sequence (A0A2U9PFG6 1-239): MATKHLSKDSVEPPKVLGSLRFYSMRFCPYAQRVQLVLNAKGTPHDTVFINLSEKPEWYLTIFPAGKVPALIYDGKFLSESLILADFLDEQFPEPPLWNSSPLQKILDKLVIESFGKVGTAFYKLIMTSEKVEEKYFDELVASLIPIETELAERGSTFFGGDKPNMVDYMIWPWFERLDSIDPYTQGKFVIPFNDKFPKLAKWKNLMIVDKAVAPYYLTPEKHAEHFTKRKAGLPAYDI
Test: spectrophotometric GSH conjugation at […] nm, double reciprocal plot
Format: biochemical
Conditions: 5 mM GSH; 0.02-0.14 mM CDNB; pH 7.0, 0.1 M sodium phosphate

Question: How did the Km turn out when `O=[N+]([O-])c1ccc(Cl)c([N+](=O)[O-])c1` [CDNB, 1-chloro-2,4-dinitrobenzene] was run?
Answer: The Km was 120 µM.
